Assay results reported in the NIST ThermoML archive (doi:10.1021/acs.jced.9b00147).
Several values for one entry are separate records, joined by “and”; a condition that tells them apart may be missing. Equal values may be shown once. Numbers after ± are expanded uncertainties.

Tests used:
[1] = 101.3 kPa, Liquid; for speed of sound: Single path-length method; for mass density: Vibrating tube method
[2] = xn = mol fraction of the nth substance listed; conditions: 101.3 kPa, Liquid, x2 = 0; for speed of sound: Single path-length method; for mass density: Vibrating tube method

SMILES | speed of sound ([1]; 293.15 K) [m/s] | mass density ([1]; 293.15 K) [kg/m3] | speed of sound ([1]; 303.15 K) [m/s] | mass density ([1]; 303.15 K) [kg/m3] | speed of sound ([1]; 313.15 K) [m/s] | mass density ([1]; 313.15 K) [kg/m3] | speed of sound ([1]; 323.15 K) [m/s] | mass density ([1]; 323.15 K) | speed of sound ([2]; 293.15 K) [m/s] | mass density ([2]; 293.15 K) [kg/m3] | speed of sound ([2]; 303.15 K) [m/s] | mass density ([2]; 303.15 K) [kg/m3] | speed of sound ([2]; 313.15 K) [m/s] | mass density ([2]; 313.15 K) [kg/m3] | speed of sound ([2]; 323.15 K) [m/s] | mass density ([2]; 323.15 K) [kg/m3]
CC(=O)[O-].OCC[NH2+]CCO [2,2'-azanediylbis(ethanol) acetate] | 1884.7 ± 20 | 1180 ± 6 | 1828.2 ± 20 | 1173 ± 6 | 1788.6 ± 20 | 1167 ± 6 | 1756 ± 20 | 1160 ± 6 kg/m3 | – | – | – | – | – | – | – | –
CCCO [propan-1-ol] | 1223.4 ± 20 | 803.6 ± 6 | 1189.4 ± 20 | 795.7 ± 6 | 1155.5 ± 20 | 787.5 ± 6 | 1122 ± 20 | 779.2 ± 6 kg/m3 | – | – | – | – | – | – | – | –
CCCO [propan-1-ol] + CC(=O)[O-].OCC[NH2+]CCO | – | – | – | – | – | – | – | – | 1223.4 ± 20 | 803.6 ± 6 | 1189.4 ± 20 | 795.7 ± 6 | 1155.5 ± 20 | 787.5 ± 6 | 1122 ± 20 | 779.2 ± 6
CCCO [propan-1-ol] + CC(=O)[O-].[NH3+]CCO | – | – | – | – | – | – | – | – | 1223.4 ± 20 | 803.6 ± 6 | 1189.4 ± 20 | 795.7 ± 6 | 1155.5 ± 20 | 787.5 ± 6 | 1122 ± 20 | 779.2 ± 6

Further lines, results first:

speed of sound ([1]; 293.15 K) [m/s] | mass density ([1]; 293.15 K) [kg/m3] | speed of sound ([1]; 303.15 K) [m/s] | mass density ([1]; 303.15 K) [kg/m3] | speed of sound ([1]; 313.15 K) [m/s] | mass density ([1]; 313.15 K) [kg/m3] | speed of sound ([1]; 323.15 K) [m/s] | mass density ([1]; 323.15 K) | speed of sound ([2]; 293.15 K) [m/s] | mass density ([2]; 293.15 K) [kg/m3] | speed of sound ([2]; 303.15 K) [m/s] | mass density ([2]; 303.15 K) [kg/m3] | speed of sound ([2]; 313.15 K) [m/s] | mass density ([2]; 313.15 K) [kg/m3] | speed of sound ([2]; 323.15 K) [m/s] | mass density ([2]; 323.15 K) [kg/m3] | SMILES
1812.9 ± 20 | 1150 ± 6 | 1781.2 ± 20 | 1144 ± 6 | 1754.7 ± 20 | 1139 ± 6 | 1730.9 ± 20 | 1133 ± 6 kg/m3 and 1132 ± 6 kg/m3 | – | – | – | – | – | – | – | – | CC(=O)[O-].[NH3+]CCO [2-hydroxyethylammonium acetate]
1174.3 ± 20 | 791.5 ± 6 | 1122.4 ± 20 | 777 ± 6 | 1087.4 ± 20 | 768.2 ± 6 | 1051.6 ± 20 | 759 ± 6 kg/m3 | – | – | – | – | – | – | – | – | CC(C)O [propan-2-ol]
– | – | – | – | – | – | – | – | 1174.3 ± 20 | 791.5 ± 6 | 1122.4 ± 20 | 777 ± 6 | 1087.4 ± 20 | 768.2 ± 6 | 1051.6 ± 20 | 759 ± 6 | CC(C)O [propan-2-ol] + CC(=O)[O-].OCC[NH2+]CCO
– | – | – | – | – | – | – | – | 1174.3 ± 20 | 791.5 ± 6 | 1122.4 ± 20 | 777 ± 6 | 1087.4 ± 20 | 768.2 ± 6 | 1051.6 ± 20 | 759 ± 6 | CC(C)O [propan-2-ol] + CC(=O)[O-].[NH3+]CCO
